From patent publication US20260042747A1, “KIT INHIBITORS, COMPOUNDS, PHARMACEUTICAL COMPOSITIONS, AND METHODS OF USE THEREOF” (Alivexis, Inc., priority 2022, published 2026)
Counter-ions that a name gives are not always drawn. Like-named read-outs stand apart in the source and are kept apart here.

How the values were obtained:
M-07e cells = test: SCF-dependent M-07e cell proliferation assay; format: cell-based, human; conditions: read-out: M-07e IC50
Experimental: SCF-dependent cell proliferation assay was developed to measure the inhibitory potency of the compounds in M-07e cells, which express wild-type human KIT protein. The assay was performed in 96-well plates and the IC50 of each KIT inhibitor was determined by CellTiter Glo Assay reagent and Victor X5 Multilabel Counter (Perkin Elmer).
M-07e cells were purchased from AcceGen Biotechnology. Cells were maintained with M-07e Growth medium: RPMI-1640 containing 20% FBS, 100 U/mL penicillin and 100 microgram/mL streptomycin, 10 ng/mL rhGM-CSF, 10 ng/mL rhSCF. M-07e cells were seeded at a density of 5000 cells/90 μL/well in 96-well plates. Test compounds were dissolved in 100% DMSO to make 20 mM stock solution and serially diluted 1:3 with 100% DMSO to make an 11-point dilution series with concen-trations from […] to 0.024 μM. The serially diluted compounds were then each diluted 1:50 with culture medium to obtain assay compound solutions containing 2% DMSO. Ten μL of assay compound solutions were added to the 90 μL of culture cell suspension in the 96-well plate, with a final DMSO concentration of 0.2%. The plates were then incubated in a 5% CO2 incubator at 37° C. for 3 days. To obtain Day Zero Controls for background calculation, cells were seeded at 5000 cells/100 μL in a new 96-well plate and processed on the same day. Both Day Zero controls and 3 day culture plates were then treated as follows. 100 μL of CellTiter Glo Assay reagent was added to each well and the plate was incubated at room temperature for 15 min on a shaker at 200-300 RPM. Then 100 μL of cell lysate samples were transferred to white wall 96-well plates and luminescence was measured by a plate reader. The luminescence of Day Zero Control was subtracted from the luminescence intensity of 3 day culture readings. The assay control for this experiment was cells treated with 0.2% DMSO in culture medium and wells with 100 μL of culture medium (0.2% DMSO without cells) were used as the blank for data analysis.
The IC50 value of each compound was determined by using % inhibition by nor-malizing inhibition in DMSO treated control wells to 0% using the following formula method: […]
Plot percent inhibition in proliferation of triplicates against the respective concen-trations of compound and fit the dose response curve using the sigmoidal dose response equation to generate the IC50 in GraphPad Prism 8 software.

[1] = molecular target: recombinant human KIT tyrosine kinase protein (Homo sapiens (Human), UniProt P10721); test: KIT tyrosine kinase assay (ADP-Glo); format: biochemical
Experimental: An in vitro assay utilizing the recombinant human KIT tyrosine kinase protein was developed to measure compound inhibition of KIT. KIT tyrosine kinase activity was measured by the ADP-Glo Kinase Assay system with poly […]) peptide substrate. Kinase Assay was performed in white 384-well plates and the luminescence was measured by Victor X5 Multilabel Counter (Perkin Elmer). Recombinant intracellular domain of human KIT protein was purchased from Carna Biosciences (Kobe, Japan). Poly […]) peptide was purchased from Sigma-Aldrich (St. Louis, Missouri, USA). ADP-Glo Kinase Assay reagent was purchased from Promega (Madison, Wisconsin, USA). Each test compound was dissolved in 100% DMSO to prepare 10 mM stock solutions. […] After the preincubation, 3 μL of substrate/ATP mixture was added and incubated for 1 hour at room temperature. The tyrosine phosphorylation by KIT kinase was quantified by ADP-Glo kinase assay kit following the manufacturer's protocol. Briefly, the phosphorylation reaction was terminated by adding 10 μL ADP-Glo reagent and incubated for 60 minutes at room temperature. 20 μL of Kinase Detection Reagent was added to each well and luminescence was measured by plate reader. […] Half maximal inhibitory concentration (IC50) was calculated by a Four […] Logistic Regression model using GraphPad Prism (GraphPad Software). The value without recombinant KIT protein and without test compound was used as a negative control (assay background).

[2] = Homo sapiens, M-07e, 72 h, SCF-dependent M-07e cell proliferation, 3 days, CellTiter Glo
[3] = SCF-dependent M-07e cell proliferation, 3 days, CellTiter Glo

Chain of recombinant human KIT tyrosine kinase protein (P10721 546-976): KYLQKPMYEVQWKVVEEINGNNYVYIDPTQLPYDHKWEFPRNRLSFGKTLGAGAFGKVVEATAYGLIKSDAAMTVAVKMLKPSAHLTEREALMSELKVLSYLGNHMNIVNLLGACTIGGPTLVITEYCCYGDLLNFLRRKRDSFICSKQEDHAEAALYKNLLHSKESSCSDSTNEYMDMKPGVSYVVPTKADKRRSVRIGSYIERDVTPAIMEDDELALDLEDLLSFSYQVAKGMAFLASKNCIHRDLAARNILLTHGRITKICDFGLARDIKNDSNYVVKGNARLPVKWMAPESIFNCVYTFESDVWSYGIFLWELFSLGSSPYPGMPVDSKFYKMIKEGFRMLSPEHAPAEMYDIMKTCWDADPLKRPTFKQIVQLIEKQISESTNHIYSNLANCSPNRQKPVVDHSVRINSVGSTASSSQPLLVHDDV

SMILES | IC50 (M-07e cells; [2]) [nM] | IC50 ([1]; Table 99) [nM] | IC50 (M-07e cells; [3]) [nM] | IC50 (M-07e cells; Homo sapiens, M-07e, 72 h) [nM] | IC50 ([1]; Table 98) [nM]
CN(c1ccc(CNC(=O)c2ccc3c(c2)[nH]c(=O)n3C)cn1)C1CC2C(C1)C2(F)F (stereo not drawn) [Example 108, N-((6-((6,6-Difluorobicyclo[3.1.0]hexan-3-yl)(methyl)amino)pyridin-3-yl)methyl)-1-met hyl-2-oxo-2,3-dihydro-1H-benzimidazole-5-carboxamide] | 65 | 22 | – | – | –
CN(c1ccc(CNC(=O)c2cc(Cl)c3[nH]c(=O)[nH]c3c2)cn1)[C@H]1C[C@@H](C(F)(F)F)C1 [compound 141] | – | 27 | 153 | – | –
CN(c1ccc(CNC(=O)c2ccc3c(c2)[nH]c(=O)n3C)cn1)[C@@H]1CC[C@H](F)C1 [Example 134] | – | 38 | – | 62 | –
[2H]C([2H])([2H])n1c(=O)[nH]c2cc(C(=O)NCc3ccc(N(C)[C@H]4C[C@@H](C(F)(F)F)C4)nc3)ccc21 (relative stereo) [Example 116, 1-(Trideuteromethyl)-N-((6-(methyl(cis-3-(trifluoromethyl)cyclobutyl)amino)pyridin-3-yl)methyl)-2-oxo-2,3-dihydro-1H-benzimidazole-5-carboxamide] | 28 | 29 | – | – | –
CC(C1CC1)N(C)c1ccc(CNC(=O)c2ccc3c(c2)[nH]c(=O)n3C)cn1 (stereo not drawn) [Example 83] | – | – | – | 300 | 41
C[C@H]1CCCN1c1cnc(CNC(=O)c2ccc3c(c2)[nH]c(=O)n3C)cn1 [Example 98] | – | – | – | 990 | 71
CN(c1ccc(CNC(=O)c2ccc3c(c2)[nH]c(=O)n3C)cn1)C1CC(OC(F)F)C1 (single isomer, unassigned) [106 Isomer I, N-((6-((3-(Difluoromethoxy)cyclobutyl)(methyl)amino)pyridin-3-yl)methyl)-1-methyl-2-oxo-2,3-dihydro-1H-benzimidazole-5-carboxamide] | – | 36 | 15 | – | –
Cn1c(=O)[nH]c2cc(C(=O)NCc3cnc4c(c3)CCN4c3ccccc3F)ccc21 [Compound 19, N-((1-(2-Fluorophenyl)-2,3-dihydro-1H-pyrrolo[2,3-b]pyridin-5-yl)methyl)-1-methyl-2-o xo-2,3-dihydro-1H-benzimidazole-5-carboxamide] | 160 | – | – | – | 60
Cn1c(=O)[nH]c2cc(C(=O)NCc3ccc(Oc4ccc(F)cc4F)nc3)ccc21 [Compound 4, N-((6-(2,4-Difluorophenoxy)pyridin-3-yl)methyl)-1-methyl-2-oxo-2,3-dihydro-1H-benzi midazole-5-carboxamide] | 380 | – | – | – | 21
CN(c1ccc(CNC(=O)c2ccc3c(c2)[nH]c(=O)n3C)cn1)C1CC(F)(F)C1 [Example 65] | – | – | – | 270 | 35
CN(c1ccc(CNC(=O)c2cc3[nH]c(=O)[nH]c3c(F)c2F)cn1)C1CCC(F)(F)C1 (stereo not drawn) [Example 146] | 621 | 30 | – | – | –
CN(c1ccc(CNC(=O)c2ccc3c(c2)[nH]c(=O)n3C)cn1)C1[C@H]2CC(F)(F)C[C@@H]12 (stereo partly drawn) [Example 126] | – | 33 | – | 806 | –
CCN(c1ccc(F)cc1)c1ccc(CNC(=O)c2ccc3c(c2)[nH]c(=O)n3C)cn1 [Example 58] | – | – | – | 2400 | 21
CC(NC(=O)c1ccc2c(c1)[nH]c(=O)n2C)c1ccc(N(C)C(C)C)nc1 (stereo not drawn) [Example 130] | 1860 | 222 | – | – | –
CN(c1ccc(CNC(=O)c2cc(F)c3[nH]c(=O)[nH]c3c2)cn1)C1CCC(F)(F)CC1 [Example 143] | 1460 | 35 | – | – | –
Cn1c(=O)[nH]c2cc(C(=O)NCc3ccc(N4CCCC4(C)C)nc3)ccc21 [Example 97] | – | – | – | 240 | 34

SMILES | IC50 (M-07e cells; [2]) [nM] | IC50 ([1]; Table 99) [nM] | IC50 (M-07e cells; [3]) [nM] | IC50 (M-07e cells; Homo sapiens, M-07e, 72 h) [nM] | IC50 ([1]; Table 98) [nM]
CN(c1ccc(CNC(=O)c2ccc3c(c2)[nH]c(=O)n3C)cn1)C1CC(OC(F)F)C1 (single isomer, unassigned) [106 Isomer II, N-((6-((3-(Difluoromethoxy)cyclobutyl)(methyl)amino)pyridin-3-yl)methyl)-1-methyl-2-oxo-2,3-dihydro-1H-benzimidazole-5-carboxamide] | – | 22 | 89 | – | –
CN(c1ccc(CNC(=O)c2ccc3c(c2)[nH]c(=O)n3C)cn1)[C@H]1CC[C@@H](F)C1 [Example 110, N-((6-(((1S,3R)-3-Fluorocyclopentyl)(methyl)amino)pyridin-3-yl)methyl)-1-methyl-2-ox o-2,3-dihydro-1H-benzimidazole-5-carboxamide] | 55 | 33 | – | – | –
CN(CC1CC(F)(F)C1)c1ccc(CNC(=O)c2ccc3c(c2)[nH]c(=O)n3C)cn1 [Example 68] | – | – | – | 130 | 42
CN(CC1CCC(F)(F)CC1)c1ccc(CNC(=O)c2ccc3c(c2)[nH]c(=O)n3C)cn1 [Example 70] | – | – | – | 140 | 61
CN(Cc1ccccn1)c1ccc(CNC(=O)c2ccc3c(c2)[nH]c(=O)n3C)cn1 [Example 76] | – | – | – | 1600 | 86
Cn1c(=O)[nH]c2cc(C(=O)NCc3ccc(Oc4ccccc4F)nc3)c(F)cc21 [Compound 3, 6-Fluoro-N-((6-(2-fluorophenoxy)pyridin-3-yl)methyl)-1-methyl-2-oxo-2,3-dihydro-1H-benzimidazole-5-carboxamide trifluoroacetate] | 180 | – | – | – | 26
CN(c1ccc(CNC(=O)c2ccc3c(c2)[nH]c(=O)n3C)cn1)C1CCCC(O)C1 (stereo not drawn) [Example 104, N-((6-((3-Hydroxycyclohexyl)(methyl)amino)pyridin-3-yl)methyl)-1-methyl-2-oxo-2,3-d ihydro-1H-benzimidazole-5-carboxamide] | 7660 | 51 | – | – | –
CN(c1ccc(CNC(=O)c2ccc3c(c2)[nH]c(=O)n3C)cn1)C1CC(OC(F)(F)F)C1 (single isomer, unassigned) [107 Isomer I, 1-Methyl-N-((6-(methyl(3-(trifluoromethoxy)cyclobutyl)amino)pyridin-3-yl)methyl)-2-oxo-2,3-dihydro-1H-benzimidazole-5-carboxamide] | – | 18 | 47 | – | –
CN(c1ccc(CNC(=O)c2ccc3c(c2)[nH]c(=O)n3C)cn1)[C@H]1C[C@@H]1C(F)(F)F [Example 127] | – | 47 | – | 1320 | –
CN(c1ccc(CNC(=O)c2cc3[nH]c(=O)[nH]c3cc2F)cn1)[C@H]1C[C@@H](C(F)(F)F)C1 [Example 137] | 36 | 23 | – | – | –
Cn1c(=O)[nH]c2cc(C(=O)NCc3ccc(Oc4ccc(Cl)cc4F)nc3)ccc21 [Example 39] | – | – | – | 140 | 35
Cn1c(=O)[nH]c2cc(C(=O)NCc3cnc(N(C)[C@H]4C[C@@H](C(F)(F)F)C4)cn3)ccc21 [Example 95] | – | – | – | 190 | 24
CN(c1ccc(CNC(=O)c2ccc3[nH]c(=O)[nH]c3c2)cn1)C1CCC(F)(F)CC1 [Example 128] | 2830 | – | – | – | –
CC(NC(=O)c1ccc2c(c1)[nH]c(=O)n2C)c1ccc(Oc2ccc(F)cc2)nc1 (single isomer, unassigned) [Compound 6 Peak 1, N-(1-(6-(4-Fluorophenoxy)pyridin-3-yl)ethyl)-1-methyl-2-oxo-2,3-dihydro-1H-benzimid azole-5-carboxamide] | 680 | – | – | – | –
CN(c1ccc(CNC(=O)c2ccc3c(c2)[nH]c(=O)n3C)cn1)C1CCC(F)(F)CC1 [Compound 10, N-((6-((4,4-Difluorocyclohexyl)(methyl)amino)pyridin-3-yl)methyl)-1-methyl-2-oxo-2,3-dihydro-1H-benzimidazole-5-carboxamide] | 240 | – | – | – | –
Cc1ccc(N(C)c2ccc(CNC(=O)c3ccc4c(c3)[nH]c(=O)n4C)cn2)cn1 [Example 63] | – | – | – | – | 37
